The test system of one series is HeLa cells. Description: Cell cycle analysis (PI staining, flow cytometry). The series is classed as cell-based, human. The note with it: 2 μM, 24-72 h. The method, then:
To study the effects of the compounds on the cell cycle, cells were incubated for different times with the compounds and, thereafter, their DNA was stained using propidium iodide (PI) to allow for quantification by flow cytometry. […] The brominated ethyl BZTs (5b and 5f) were faster to show the subG0/G1 decrease, at 24 h, followed by an apparent stabilization of the G0/G1 population at 48 h, which abruptly fell at the 72 h time point.
HeLa cells (8 × 10^4 cells/mL) were seeded in 6-well plates (2 mL/well) and incubated in complete DMEM medium at 37 °C and 5% CO2 atmosphere for 24 h. Then, the medium was replaced with fresh complete DMEM in the presence or absence of the selected compounds (3ea, 5b, 5f, and frentizole 6e) at 2 μM. Untreated cells were used as negative controls. Cells were harvested 24, 48, or 72 h following treatment and fixed in ice-cold ethanol/PBS (7:3) overnight. The cells were then washed twice with PBS, suspended in PBS and incubated overnight in darkness with 0.2 mg/mL RNase A (Sigma-Aldrich, St. Louis, MO, USA), 50 μg/mL propidium iodide (Sigma-Aldrich, St. Louis, MO, USA), and Triton 10× at room temperature. A BD Accuri™ C6 Plus Flow Cytometer (BD Bioscience, Madrid, Spain) was used to analyze samples, and BD Accuri™ C6 Software (version 1.0.264.21) was used for data analysis.
For orientation: Flow cytometry measures light scatter and fluorescence of single cells or particles in a stream.

The subject of series [1] is U87 MG (human glioblastoma). Description: MTT antiproliferative assay, U-87 MG. The series is classed as cell-based. The note with it: 72 h after drug treatment, threshold 10 μM. The method, then: (§1) The cell proliferation inhibitory activity of frentizole and the synthesized analogs 2–10 against representative human cancer cell lines was assayed using the MTT method (Table 1). […] For those compounds inhibiting cell proliferation by more than 40% with respect to the untreated controls at the threshold concentration, the IC50 values were calculated by measuring the proliferation inhibition in a range of concentrations from 100 to 0.001 μM and adjusting the resulting curves to sigmoidal dose–response curves. The selected cell lines were HeLa (cervix epithelioid carcinoma cells), one of the most frequent kinds of cancer, with good sensitivity against antimitotic agents, and the glioblastoma cell lines U87MG and A172. To study the selectivity of the compounds toward cancer cells versus nontumor cells, the compounds were also evaluated against the nontumorigenic cell line HEK-293 (human embryonic kidney cells) and the murine macrophage cell line J774. Sulfonamide ABT-751, as a representative of the colchicine-site ligands, and the first-line drug for the treatment of glioblastoma multiforme temozolomide (TMZ) were used as reference compounds.
(§2) The cell lines were from ATTC (Manassas, VA, USA). HeLa (human cervix epithelioid carcinoma), U87 MG (human glioblastoma), A172 (human glioblastoma), and HEK-293 (human embryonic kidney) were grown in Dulbecco’s modified Eagle’s medium (DMEM, Gibco, Waltham, MA, USA), supplemented with 10% (v/v) heat-inactivated fetal bovine serum (HIFBS, Sigma-Aldrich, St. Louis, MO, USA), 2 mM L-glutamine, 100 μg/mL streptomycin, and 100 units/mL penicillin (Gibco, Waltham, MA, USA) at 37 °C in humidified 95% air and 5% CO2. The cells were periodically tested for Mycoplasma infection using MycoAlert kit (Lonza, Norwest, Australia), and only mycoplasma-free cells were employed in the experiments.
(§3) The effect of the compounds on the proliferation of human tumor cell lines was determined as previously described using the MTT reagent 3-[4,5-dimethylthiazol-2-yl]-2,5-diphenyltetrazolium bromide, MTT Thiazolyl Blue Tetrazolium Bromide, Sigma-Aldrich, St. Louis, MO, USA) dissolved in PBS at 5 mg/mL, according to the manufacturer’s instructions. The cells were incubated in 96-well plates (100 μL/well), in complete DMEM or RPMI 1640 medium (see above), at 37 °C and 5% CO2 atmosphere for 24 h to allow for cell attachment to the plate at the following concentrations: 30,000 cells/mL (U87MG, A172, J774, and HEK-293 cells) or 15,000 cells/mL (HeLa cells). Then, every compound was added (10 μL/well) to a final concentration of 10 μM. Untreated cells were used as negative controls. The antiproliferative activity of the compounds was measured 72 h after drug exposure using the MTT assay. The IC50 value (the drug concentration required to inhibit 50% of the cell growth in respect the untreated control) was determined for those compounds showing antiproliferative effects in the initial screening at 10 μM. For this purpose, the compounds were used at different concentrations ranging from 10^−10 to […]. Measurements were performed in triplicate and each experiment was repeated three times. The IC50 values were determined using Origin software (OriginLab, Washington, DC, USA).
A general note: Formazan colour is commonly taken as a measure of viable cells.

Series [2] has as its system microtubule network of HeLa cells. Description: Immunofluorescence confocal microscopy of cellular microtubules. The series is classed as cell-based, human. The following applies: 2 μM, 24 h. The method, then:
Therefore, we studied the effect of the compounds after 24 h of treatment on the microtubule network of HeLa cells by immunofluorescence confocal microscopy (Figure 5) through α-tubulin and nuclei labeling. […] These morphological effects are typical of tubulin inhibitors. Again, the effects are more pronounced for 5b than for 3ea, frentizole, and 5f.
HeLa cells (8 × 10^4 cells/mL) were seeded on 0.01% poly-L-lysine precoated square glass coverslips (22 mm^2), deposited on 6-well plates (1 coverslip/well), and incubated in complete DMEM medium at 37 °C and 5% CO2 atmosphere. After 24 h the culture medium was replaced by fresh complete DMEM, and the cells were incubated in the presence of 2 μM or absence of the selected compounds (3ea, 5b, 5f, and frentizole 6e) for 24 h. Untreated cells were used as negative controls. Then the medium was removed, and the coverslips were washed three times with PBS, fixed in 4% formaldehyde in PBS for 10 min, permeabilized with 0.5% Triton X-100 (Sigma-Aldrich, St. Louis, MO, USA) in PBS for 90 s at 4 °C, blocked with 10% BSA in PBS for 30 min and washed four times with PBS. Then, the coverslips were incubated for 1 h with anti-α-tubulin mouse monoclonal antibody (Sigma-Aldrich, St. Louis, MO, USA, 1:200 in PBS containing 3% BSA). After four washes with PBS, the coverslips were incubated with fluorescent secondary antibody Alexa Fluor 488 goat anti-mouse IgG (Molecular Probes, Invitrogen, Eugenen, OR, USA, 1:400 in PBS containing 1% BSA) for 1.5 h in darkness. After four washes with PBS, a droplet of ProLong™ Gold Antifade Mountant containing DAPI (ThermoFisher, Waltham, MA, USA) was added for cell nuclei staining. The samples were analyzed via confocal microscopy using a LEICA SP5 microscope DMI-6000V model coupled to a LEICA LAS AF 4.0 software computer.

Series [3] relates to murine macrophage cell line J774. The series is described as follows: MTT antiproliferative assay, J774. The class given is cell-based. The following applies: Mus musculus, 72 h after drug treatment, threshold 10 μM, read-out: IC50 J-774. The method, then: as §1, §3
The subject of series [4] is nontumorigenic cell line HEK-293 (human embryonic kidney cells). The series is described as follows: MTT antiproliferative assay, HEK-293. The class given is cell-based. The note with it: HEK293, 72 h after drug treatment, threshold 10 μM. The method, then:
as §1, §2, §3

Series [5] has as its system A172 (human glioblastoma). Description: MTT antiproliferative assay, A-172. The note with it: 72 h after drug treatment, threshold 10 μM. The series is classed as cell-based. The method, then:
as §1, §2, §3

In series [6] the test system is HeLa (cervix epithelioid carcinoma cells). Description: MTT antiproliferative assay, HeLa. The series is classed as cell-based, human. The following applies: for IC50: Homo sapiens, HeLa. The method, then: as §1, §2, §3
On the set-up of series [7]: method as in PMID 24858403. The following applies: cited from earlier work.
The test system of series [8] is Ras-related protein Rab-9A. Further details: method as in SuperPred [40]. The note with it: Table S2, CHEMBL1293294; ref SuperPred [40]; cited from earlier work.
Series [9] deals with Survival motor neuron protein. On the set-up: method as in SuperPred [40]. The following applies: Table S2, CHEMBL1293232; ref SuperPred [40]; cited from earlier work.
The nature of a further series: Solubility (remark). The class given is physicochemical.
The subject of series [10] is U87 MG (human glioblastoma). Further details: method as in PMID 37376146. The note with it: cited from earlier work.
Setting [11] is: 72 h after drug treatment, threshold 10 μM.

Data on 6 molecules can be found in article PMC10744269, “Frentizole, a Nontoxic Immunosuppressive Drug, and Its Analogs Display Antitumor Activity via Tubulin Inhibition” (International Journal of Molecular Sciences, 2023).

Some results are limits rather than exact numbers.

As usually defined, the IC50 is the concentration at which inhibition is half-maximal. On to `COc1ccc2nc(N(C)C(=O)c3ccccc3)sc2c1` [Compound 3ea, N-(6-methoxybenzo[d]thiazol-2-yl)-N-methylbenzamide], for which the “effect on the cell cycle populations (in words)” value in the series with HeLa cells is on record as “weakest effect on the cell populations”. The IC50 in series [1] was greater than 10 µM; in series [3], greater than 10 µM; in series [4], greater than 10 µM; in [5] it was greater than 10 µM; in [6] (setting [11]), 0.74 µM. Besides, in [2], the “effect on the microtubule network (in words)” value is reported as “severe microtubule network disruption”. Besides, the “activity against HeLa cells (in words)” value in series [6] is “significant activity”.
For `COc1ccc2nc(NC(=O)Nc3ccccc3)sc2c1` [Compound 6e, 1-(6-Methoxybenzo[d]thiazol-2-yl)-3-phenylurea, reference compound], the “effect on the cell cycle populations (in words)” value with HeLa cells (listed as Frentizole (6e)) is “progressive accumulation of cells in the G2/M population”; in the series on HeLa cells (listed as frentizole) it was “no increase in the subG0/G1 population was observed”. Besides, the IC50 in series [1] is 7.33 µM; in [3], greater than 10 µM; in [4], 6.86 µM; in series [5], greater than 10 µM; in [6] (setting [11]), 1 µM. In series [2], the “effect on the microtubule network (in words)” value was “severe microtubule network disruption”. Further, in [7], the “blood–brain barrier crossing” value is given as “able to cross the blood–brain barrier”. The “Min Activity (Assay type Potency)” value in [8] is reported as 707.9 nm; in series [9] it was 891.3 nm. For the same molecule, the “activity against HeLa cells (in words)” value in series [6] is “significant activity”. Moreover, the “IC50 HeLa” value in [6] (setting [11]) was “low micromolar range”.
Consider `CCNC(=O)Nc1nc2c(Br)cc(C)cc2s1` [Compound 5b, 1-(4-Bromo-6-methylbenzo[d]thiazol-2-yl)-3-ethylurea], for which, in the series on HeLa cells, the “effect on the cell cycle populations (in words)” value is listed as “arrest at G2/M in the 24 to 48 h period”. Besides, the IC50 in [1] is greater than 10 µM; in series [3], greater than 10 µM; in [4], greater than 10 µM; in [5], greater than 10 µM; in series [6] (setting [11]) it was 0.49 µM. For the same molecule, in series [2], the “effect on the microtubule network (in words)” value was “severe microtubule network disruption”. Further, the “activity against HeLa cells (in words)” value in series [6] was “significant activity”.
As to `CCNC(=O)Nc1nc2c(Br)cc(OC)cc2s1` [Compound 5f, 1-(4-Bromo-6-methoxybenzo[d]thiazol-2-yl)-3-ethylurea], in the series on HeLa cells, the “effect on the cell cycle populations (in words)” value is recorded as “increase in the subG0/G1 population progressively occurs at the 48 h to 72 h timepoints”. For the same molecule, the IC50 in series [1] is greater than 10 µM; in [3], greater than 10 µM; in series [4], greater than 10 µM; in [5] it was greater than 10 µM; in [6] (setting [11]), 0.7 µM. Moreover, the “effect on the microtubule network (in words)” value in series [2] is reported as “severe microtubule network disruption”. Also, the “activity against HeLa cells (in words)” value in series [6] was “significant activity”.
Turning to `CCNC(=O)Nc1nc2c(Br)c(C)c(C)cc2s1` [Compound 5d, 1-(4-Bromo-5,6-dimethylbenzo[d]thiazol-2-yl)-3-ethylurea], the IC50 was greater than 10 µM in [1]; greater than 10 µM in series [3]; greater than 10 µM in [4]; greater than 10 µM in series [5]; 1.24 µM in [6] (setting [11]). Further, the “solubility (in words)” value in the series “Solubility (remark)” is on record as “very limited solubility”. Also, in series [6], the “activity against HeLa cells (in words)” value is on record as “significant activity”.
As for `Cn1nnc2c(C(N)=O)ncn2c1=O` [temozolomide], the “in vitro IC50 against U87MG” value in series [10] is on record as “millimolar range”.
